Here are results for 30 molecules from patent US12162858B2, “Quinoline derivatives as inhibitors of AXL/MER RTK and CSF1R” (QURIENT CO., LTD., priority 2018, dated 2024).

One test concerns CSF1R (M-NFS-60 cells). In words: Cell Titer-Glo viability assay using M-NFS-60 cells. It is filed as cell-based. To be noted: Mus musculus, read-out: Cellular CSF1R activity by M-NFS-60 viability assay (IC50 activity range). The method in brief: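 M-NFS-60 cells grown with 62 ng/ml recombinant human M-CSF, seeded at 2×10^5 cells/well and incubated at 37 °C/5% CO2. Compounds given as 3-fold serial dilutions (10 doses); viability read by CellTiter-Glo luminescence, sigmoidal dose-response fit.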

The next test deals with CSF1R (Homo sapiens, UniProt P07333). As to the kind of experiment: Cellular CSF1R inhibition ELISA (p-CSF1R, M-CSF-induced) using THP-1 cells. On the set-up: THP-1 cells act as a model for human monocytes; endogenous in cells; host or cells: THP-1. Type of test: cell-based. The method in brief:
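THP-1 cells (2×10^5/well, RPMI/10% FBS) were treated with compound, 10 doses in 3-fold steps, for 24 h at 37 °C in 0.2% DMSO final. They were then stimulated 5 min with human M-CSF (10 ng/ml final) and lysed. p-CSF1R was read by sandwich ELISA (HRP/TMB), with a sigmoidal dose-response fit.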
In general terms: In an ELISA, binding on a coated surface is turned into a signal by an enzyme label.

Sequence of CSF1R (P07333 20-972): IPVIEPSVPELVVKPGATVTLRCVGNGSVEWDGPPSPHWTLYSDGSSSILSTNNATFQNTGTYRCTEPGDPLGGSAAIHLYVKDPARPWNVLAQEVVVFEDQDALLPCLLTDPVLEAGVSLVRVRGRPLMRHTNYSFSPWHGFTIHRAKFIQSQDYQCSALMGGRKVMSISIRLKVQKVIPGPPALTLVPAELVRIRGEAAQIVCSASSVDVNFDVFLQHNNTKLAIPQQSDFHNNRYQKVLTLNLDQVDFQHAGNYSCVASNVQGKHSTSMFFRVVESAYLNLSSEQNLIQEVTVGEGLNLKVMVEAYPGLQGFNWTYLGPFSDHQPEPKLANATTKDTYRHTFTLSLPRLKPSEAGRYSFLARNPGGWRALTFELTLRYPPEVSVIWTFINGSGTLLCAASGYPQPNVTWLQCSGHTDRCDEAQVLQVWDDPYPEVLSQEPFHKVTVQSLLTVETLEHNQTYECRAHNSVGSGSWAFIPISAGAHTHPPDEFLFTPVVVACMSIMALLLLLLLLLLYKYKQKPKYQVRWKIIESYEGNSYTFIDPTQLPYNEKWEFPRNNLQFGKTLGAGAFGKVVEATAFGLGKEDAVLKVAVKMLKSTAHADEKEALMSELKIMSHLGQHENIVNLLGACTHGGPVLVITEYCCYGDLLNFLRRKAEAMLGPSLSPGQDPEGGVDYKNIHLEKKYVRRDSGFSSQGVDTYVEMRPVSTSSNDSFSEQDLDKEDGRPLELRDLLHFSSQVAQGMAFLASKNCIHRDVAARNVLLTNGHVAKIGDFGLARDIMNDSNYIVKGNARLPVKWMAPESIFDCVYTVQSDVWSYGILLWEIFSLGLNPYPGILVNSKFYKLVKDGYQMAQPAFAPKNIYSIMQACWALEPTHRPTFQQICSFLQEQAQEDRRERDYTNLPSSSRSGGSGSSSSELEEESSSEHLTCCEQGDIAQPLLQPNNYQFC

Usually IC50 stands for the concentration that gives 50% inhibition. For the molecule `COCCn1cc(OCC(F)(F)F)c(C(=O)Nc2ccc(Oc3ccnc4cc(OC)c(OC)cc34)cc2)n1` [Compound 61], the IC50 is 1 to 10 µM in the test on CSF1R (M-NFS-60 cells) and not below 1 µM against CSF1R.

For `COc1cc2nccc(Oc3ccc(NC(=O)c4nn(C5CCOC5)cc4OCC(F)(F)F)cc3)c2cc1OC` (stereo not drawn) [Compound 62], the IC50 was 1 to 10 µM in the test with CSF1R (M-NFS-60 cells) and not below 1 µM against CSF1R.

As to `COc1cc2nccc(Oc3ccc(NC(=O)c4nn(CC(C)N)cc4OCC(F)(F)F)nc3)c2cc1OC` (stereo not drawn) [Compound 63], the IC50 with CSF1R (M-NFS-60 cells) lay within 1 to 10 µM; against CSF1R, 0.5 to 1 µM.

For `COc1cc2nccc(Oc3ccc(NC(=O)c4nn(CC(C)(F)F)cc4OCC(F)(F)F)nc3)c2cc1OC` [Compound 64], the values for the IC50 in the test on CSF1R (M-NFS-60 cells) and against CSF1R were 1 to 10 µM and less than 0.5 µM, respectively.

Regarding `COc1cc2nccc(Oc3ccc(NC(=O)c4nn(CCOC5CCC5)cc4OCC(F)(F)F)nc3)c2cc1OC` [Compound 65], the IC50 with CSF1R (M-NFS-60 cells) is 1 to 10 µM; at CSF1R, less than 0.5 µM.

Take `COc1cc2nccc(Oc3ccc(NC(=O)c4nn(C5COC5)cc4OCC(F)(F)F)nc3)c2cc1OC` [Compound 66]: the concentration for half-maximal inhibition (IC50) with CSF1R (M-NFS-60 cells) was 1 to 10 µM; against CSF1R, less than 0.5 µM.

In the case of `COc1cc2nccc(Oc3ccc(NC(=O)c4nn(CCO)cc4OCC(F)(F)F)nc3)c2cc1OC` [Compound 67], the IC50 was 1 to 10 µM in the test on CSF1R (M-NFS-60 cells) and less than 0.5 µM against CSF1R.

With `COc1cc2nccc(Oc3ccc(NC(=O)c4nn(CCCN)cc4OCC(F)(F)F)nc3)c2cc1OC` [Compound 68], the figures for the IC50 in the test with CSF1R (M-NFS-60 cells) and against CSF1R were 1 to 10 µM and less than 0.5 µM, respectively.

On to `COc1cc2nccc(Oc3ccc(NC(=O)c4nn(C5CCCCC5)cc4OCC(F)(F)F)nc3)c2cc1OC` [Compound 69], for which the IC50 in the test with CSF1R (M-NFS-60 cells) was 1 to 10 µM; at CSF1R it was less than 0.5 µM.

`COc1cc2nccc(Oc3ccc(NC(=O)c4nn(C5CCNC5)cc4OCC(F)(F)F)nc3)c2cc1OC` (stereo not drawn) [Compound 70]: the 50% inhibitory concentration (IC50) in the test with CSF1R (M-NFS-60 cells) fell in the range of 1 to 10 µM; against CSF1R it was 0.5 to 1 µM.

For `COc1cc2nccc(Oc3ccc(NC(=O)c4nn(CC5CCCC5)cc4OCC(F)(F)F)nc3)c2cc1OC` [Compound 71], the IC50 with CSF1R (M-NFS-60 cells) is 1 to 10 µM; at CSF1R it was less than 0.5 µM.

For `COc1cc2nccc(Oc3ccc(NC(=O)c4nn(CC5CCNC5)cc4OCC(F)(F)F)nc3)c2cc1OC` (stereo not drawn) [Compound 72], the IC50 was 1 to 10 µM in the test with CSF1R (M-NFS-60 cells) and less than 0.5 µM on CSF1R.

For `COc1cc2nccc(Oc3ccc(NC(=O)c4nn(CC5CNC5)cc4OCC(F)(F)F)nc3)c2cc1OC` [Compound 73], the values for the IC50 with CSF1R (M-NFS-60 cells) and against CSF1R were 1 to 10 µM and less than 0.5 µM, respectively.

With `COc1cc2nccc(Oc3ccc(NC(=O)c4nn(C5CCNC5)cc4OCC(F)(F)F)c(F)c3)c2cc1OC` (stereo not drawn) [Compound 74], the IC50 was 1 to 10 µM in the test on CSF1R (M-NFS-60 cells) and not below 1 µM against CSF1R.

As for `COc1cc2nccc(Oc3ccc(NC(=O)c4nn(CCN)cc4OCC(F)(F)F)c(F)c3)c2cc1OC` [Compound 75], the IC50 with CSF1R (M-NFS-60 cells) is 1 to 10 µM; against CSF1R it was not below 1 µM.

Consider `COc1cc2nccc(Oc3ccc(NC(=O)c4nn(CC(C)O)cc4OCC(F)(F)F)c(F)c3)c2cc1OC` (stereo not drawn) [Compound 76], for which the IC50 with CSF1R (M-NFS-60 cells) is 1 to 10 µM; at CSF1R, not below 1 µM.

With `COc1cc2nccc(Oc3ccc(NC(=O)c4nn(CCC(F)(F)F)cc4OCC4CCC4)nc3)c2cc1OC` [Compound 166], the IC50 in the test with CSF1R (M-NFS-60 cells) was 1 to 10 µM; against CSF1R, not below 1 µM.

In the case of `CCCn1cc(OCC2CCC2)c(C(=O)Nc2ccc(Oc3ccnc4cc(OC)c(OC(F)(F)F)cc34)cn2)n1` [Compound 167], the IC50 in the test with CSF1R (M-NFS-60 cells) was 1 to 10 µM; on CSF1R, not below 1 µM.

For `COc1cc2nccc(Oc3ccc(NC(=O)c4nn(CCNC5CC5)cc4OCC(F)(F)F)nc3)c2cc1OC` [Compound 168], the results for the IC50 with CSF1R (M-NFS-60 cells) and against CSF1R were less than 1 µM and less than 0.5 µM, respectively.

Take `COc1cc2nccc(Oc3ccc(NC(=O)c4nn(CC5CCN(C)C5)cc4OCC(F)(F)F)nc3)c2cc1OC` (stereo not drawn) [Compound 169]: the IC50 in the test with CSF1R (M-NFS-60 cells) is less than 1 µM; against CSF1R it was less than 0.5 µM.

As to `COc1cc2nccc(Oc3ccc(NC(=O)c4nn(C5CC5)cc4OCCC(F)(F)F)nc3)c2cc1OC` [Compound 170], the figures for the half-maximal inhibitory concentration (IC50) with CSF1R (M-NFS-60 cells) and on CSF1R were less than 1 µM and less than 0.5 µM, respectively.

Regarding `COCCOc1cn(C2CC2)nc1C(=O)Nc1ccc(Oc2ccnc3cc(OC)c(OC)cc23)nn1` [Compound 171], the figures for the IC50 with CSF1R (M-NFS-60 cells) and at CSF1R were not below 10 µM and not below 1 µM, respectively.

As to `COc1cc2nccc(Oc3ccc(NC(=O)c4nn(C5CC5)cc4OCC4CNC4)nn3)c2cc1OC` [Compound 172], the IC50 with CSF1R (M-NFS-60 cells) was not below 10 µM; against CSF1R, not below 1 µM.

With `COc1cc2nccc(Oc3ccc(NC(=O)c4nn(C5CC5)cc4OCCC(F)(F)F)nn3)c2cc1OC` [Compound 173], the IC50 is 1 to 10 µM in the test on CSF1R (M-NFS-60 cells) and not below 1 µM on CSF1R.

As for `COc1cc2nccc(Oc3ccc(NC(=O)c4nn(CC(C)O)cc4OCC4CN(C)C4)nc3)c2cc1OC` (stereo not drawn) [Compound 174], the IC50 is not below 10 µM in the test on CSF1R (M-NFS-60 cells) and not below 1 µM at CSF1R.

Take `COc1cc2nccc(Oc3ccc(NC(=O)c4nn(CC(C)O)cc4OCC(F)F)nc3)c2cc1OC` (stereo not drawn) [Compound 175]: the results for the IC50 in the test on CSF1R (M-NFS-60 cells) and at CSF1R were less than 1 µM and less than 0.5 µM, respectively.

For `COc1cc2nccc(Oc3ccc(NC(=O)c4nc(CCC(F)(F)F)oc4CCC4CCC4)nc3)c2cc1OC` [Compound 176], the IC50 with CSF1R (M-NFS-60 cells) was 1 to 10 µM; against CSF1R, not below 1 µM.

As for `CCCn1cc(OCCN(C)C)c(C(=O)Nc2ccc(Oc3ccnc4cc(OC)c(OC)cc34)cn2)n1` [Compound 177], the half-maximal inhibitory concentration (IC50) was 1 to 10 µM in the test with CSF1R (M-NFS-60 cells) and not below 1 µM against CSF1R.

For the molecule `COc1cc2nccc(Oc3ccc(NC(=O)c4cc(C5CC5)cnc4OCC(F)(F)F)nc3)c2cc1OC` [Compound 178], the IC50 in the test with CSF1R (M-NFS-60 cells) is less than 1 µM; against CSF1R, less than 0.5 µM.

Take `COc1cc2nccc(Oc3ccc(NC(=O)c4sc(C5CC5)cc4OCC(F)(F)F)nc3)c2cc1OC` [Compound 179]: the IC50 in the test with CSF1R (M-NFS-60 cells) was less than 1 µM; on CSF1R, less than 0.5 µM.
